Data: US10124065B2, “Lipids and lipid compositions for the delivery of active agents” (Novartis AG, priority 2013, dated 2018)

Assays:
[1] = Particle size of lipid nanoparticle (dynamic light scattering, Malvern Zetasizer); format: physicochemical
Summary of the method: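 Sizes are average diameters of fully formed nanoparticles measured by dynamic light scattering. Samples were diluted in PBS to a count rate of about 200–400 kcts. Values are intensity-weighted Z-average sizes.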

[2] = Polydispersity index (PDI) of lipid nanoparticle (dynamic light scattering); format: physicochemical
Protocol: Unless indicated otherwise, all PDIs referred to herein are the PDI of the fully formed nanoparticle, as measured by dynamic light scattering on a Malvern Zetasizer. The nanoparticle sample was diluted in phosphate buffered saline (PBS) so that the count rate was approximately 200-400 kcts. The data is presented in Tables 4 and 5 as a weighted average of the intensity measure.

[3] = Measurement of mRNA encapsulation (Quant-iT Ribogreen); format: physicochemical; conditions: leptin mRNA in lipid nanoparticles (cationic lipid, DSPC, cholesterol, stealth lipid)
Protocol: All equipment and disposable supplies were certified free of RNase activity by the manufacturer or rendered RNase free by use of the RNaseZap reagent (LifeTechnologies). mRNA was encapsulated at a cationic lipid amine to mRNA phosphate (N:P) molar ratio of 4:1. Lipids (cationic lipid, DSPC, cholesterol and lipidated PEG or stealth lipid) were dissolved in ethanol. The molar ratios were […], respectively. The mixture was sonicated briefly, then gently agitated for 5 minutes and then maintained at 37° C. until use. mRNA was exchanged into citrate buffer pH 5.8-6.0 by use of Amicon Ultra-15 centrifugal concentrators, and the final concentration was adjusted to 0.5 mg/ml and held at 37° C. until use. An equal volume of lipids in ethanol, mRNA in citrate buffer, and citrate buffer alone were drawn into disposable syringes. Tubing leading from syringes containing lipids and mRNA are attached to the T junction, and tubing leading from the syringe containing citrate buffer alone was paired with the tubing exiting the T-junction over a collection vessel containing a stir bar on an active stir plate. Syringes were placed in a syringe pump set to expel contents at a flow rate of 1 ml per minute.
The pump was activated, and the collected mRNA in lipid nanoparticles was transferred to SnakeSkin dialysis tubing (10,000 MWCO, Thermo Scientific). Material was dialyzed against RNAse- and pyrogen-free 1× phosphate buffered saline overnight at 4° C.
Percent encapsulation of mRNA in lipid nanoparticles was determined using the Quant-iT Ribogreen RNA Assay kit (Life Technologies). The LNP-mRNA suspension was assayed in buffer (mRNA outside the particle), and buffer plus Triton X-100 detergent (total mRNA). The difference calculated was the mRNA inside the particle. A 1000 ng/mL stock from the RNA provided in the kit was prepared and used to generate a standard curve (0 ng/ml, 15.63-1000 ng/ml) in TE and TE+0.75% Triton X-100. LNP-mRNA samples in TE buffer and TE buffer+0.75% Triton X-100 were prepared with appropriate dilution so that reading was in the range of standard curve (400-2,000 fold). In a 384-well plate (Costar non-treated #3573) 0.04 ml of standard (in duplicate) or sample (in triplicate) were added per well. Ribogreen reagent was diluted 240-fold in TE buffer and added 0.06 ml per well. The contents of wells were mixed and fluorescence was measured (excitation=480 nm, emission=520 nm). Background values (no RNA) were subtracted from standard and test sample values and the concentrations of RNA were determined in the samples using the standard curves. The percent encapsulation of the sample was determined by dividing the difference in concentrations between sample+triton and sample in buffer alone by the sample+triton concentration.

human leptin = assay: Mouse intravenous tail vein injection of modified synthetic leptin mRNA, human leptin ELISA; format: in vivo, C57BL/6 mouse; conditions: human leptin in mouse plasma, 10 μg leptin mRNA
Protocol: Before the tail vein injection, mouse body weights were recorded and diet weighted, with mice grouped according to their body weights. Mice were prepared by warming them under a heating lamp for ˜2 minutes, with the mice about 12 inches from heat lamp.
For the tail vein injection procedure, the mice were placed in a restrainer and their tails cleaned with 70% alcohol. A 27 gauge needle (Becton Dickinson, Catalogue #305109) connected with a 1 ml syringe (Becton Dickinson, Catalogue #309659) was inserted into the tail vein, with bevel facing up, and the syringe plunger was pulled backwards to ensure blood is drawn into the syringe. The desired volume of modified synthetic leptin mRNA was injected by hand with moderate pressure and speed. The needle was then withdrawn and bleeding stopped by adding pressure to injection site with gauze.
Single housed, 8-9 week old, male C57BL/6 mice were used for the in vivo study. FPLC purified modified synthetic leptin mRNA (SEQ ID NO: 5) in which the uridines were substituted with pseudouridine was packaged in a cationic lipid (N:P molar ratio=8:1) and then were diluted in injectable saline at a dose of 10 μg per average group body weight.
On day 0, animals were weighed and sorted according to average body weight. Mice were dosed, and food intake (FI) was recorded, on each of days 1-7 and days 9, 11, and 16.
Human leptin in mouse plasma was measured by ELISA. Antibodies purchased from the R&D Systems duoset (Cat# DY398E, part#840279 for capture antibody and part#840280 for detection antibody) were reconstituted using PBS and titered, again using PBS. The capture antibody was coated at 4 ug/ml in 30 ul/well on a white Nunc® Maxisorp 384 well plate (Cat#460372). After an overnight incubation at room temperature the capture antibody was aspirated and the plate blocked for 2 hours at room temperature with 90 ul/well of KPL milk blocker (Cat#50-82-00). Once the incubation was completed the plate was aspirated and recombinant standards and samples were added to the plate at 30 ul/well for 2 hours at 37° C. while shaking at 600 rpm. Sample/standard dilutions were made using casein sample diluent. Washing/aspiration 3 times with 100 ul/well followed, using Teknova plate wash solution (Cat# P1192). Next, detection antibody was diluted using casein detection antibody diluent to 12.5 ng/ml and added at 30 ul/well for 2 hours room temperature. After this incubation, the plate was washed again and a solution of poly-streptavidin-HRP (Cat#21140) at a 1:1250 dilution in HRP dilution buffer was added to each well (30 ul/well) and incubated for 30 minutes room temperature. A final wash/aspiration removed the HRP solution and a chemiluminescent substrate was added at 30 ul/well (Cat#1859678 & 1859679). The plate was quickly read using a SpectramaxM5 plate reader with a 50 ms integration time. The dynamic range of the ELISA is from 100-2,000 pg/ml (6.25-125 pM) of human leptin.

[4] = FVII siRNA LNP, Chol/DSPC/S010, molar ratio 45/44/9/2, Z-average
[5] = leptin mRNA lipid nanoparticles
[6] = FVII siRNA LNP, Chol/DSPC/S010, molar ratio 45/44/9/2

Row | SMILES | Size (nm) [1, 4] [nm] | Size (nm) [1, 5] [nm] | PDI [2, 6] | PDI [2, 5] | % encapsulation [3] [%] | Leptin expression IV-C57BI/6, 24 h (human leptin) [ng/mL] | Leptin expression IV-C57BI/6 (ng/mL), 6 h (human leptin; 6 h)
1 | CCCCCCCC(=O)OCCCCCCCCCCOC(=O)CCC(=O)OCc1cc(COC(=O)CCC(=O)OCCCCCCCCCCOC(=O)CCCCCCC)cc(CN(C)C)c1 [Example 78, O,O′-((5-((dimethylamino)methyl)-1,3-phenylene)bis(methylene))bis(10-(octanoyloxy)decyl)disuccinate] | 178.2 | 164.0 | 0.043 | 0.150 | 71.1 | 0.96 | 
2 | CCCCCCCCCOC(=O)CCCCCCC(=O)OCc1cc(COC(=O)CCCCCCC(=O)OCCCCCCCCC)cc(CN(C)C)c1 [Example 79, O′^1,O^1-((5-((dimethylamino)methyl)-1,3-phenylene)bis(methylene)) 8-dinonyl dioctanedioate] |  | 140.5 |  | 0.116 | 91.6 |  | 1.36 (6 h) ng/mL
3 | CCCCCCCCCCCCOC(=O)CCCCCOc1cc(CN(C)C)cc(OCCCCCC(=O)OCCCCCCCCCCCC)c1 [Example 90, didodecyl 6,6′-((5-((dimethylamino)methyl)-1,3-phenylene)bis(oxy))dihexanoate] | 87.54 | 164.7 | 0.073 | 0.090 | 80.9 | 0.74 | 
